Test results reported in ChEMBL document CHEMBL5215009, “Discovery of Pan-peroxisome Proliferator-Activated Receptor Modulators from an Endolichenic Fungus, Daldinia childiae” (J Nat Prod, 2022).
Active and inactive are the calls of the source. The calls are words filed in the database; no cut-off is given here.

Tests used:
Mesenchymal stem cells [1] = test: Induction of adipogenesis in differentiated human BMMSC cells assessed as increase in adiponectin level at 30 uM in presence of IDX by ELISA; assay type: functional, cell-based
Mesenchymal stem cells [2] = test: Induction of adipogenesis in differentiated human BMMSC cells assessed as fold increase in adiponectin level at 5 uM in presence of IDX by ELISA relative to control; assay type: functional
Mesenchymal stem cells [3] = test: Induction of adipogenesis in differentiated human BMMSC cells assessed as fold increase in adiponectin level at 30 uM in presence of IDX by ELISA relative to control; assay type: functional
Mesenchymal stem cells [4] = test: Induction of adipogenesis in differentiated human BMMSC cells assessed as fold increase in adiponectin level in presence of IDX by ELISA; assay type: functional, cell-based
Mesenchymal stem cells [5] = test: Induction of adipogenesis in differentiated human BMMSC cells assessed as increase in number and size of lipid droplets at 30 uM in presence of IDX by Oil red O staining based inverted microscope analysis; assay type: functional, cell-based
[6] = target: T1, Peroxisome proliferator-activated receptor alpha (Homo sapiens) (UniProt Q07869); test: Displacement of fluormone pan-PPARgreen from PPARalpha (unknown origin) at 30 uM by TR-FRET based competitive binding assay relative to control
T1 sequence (whole entry): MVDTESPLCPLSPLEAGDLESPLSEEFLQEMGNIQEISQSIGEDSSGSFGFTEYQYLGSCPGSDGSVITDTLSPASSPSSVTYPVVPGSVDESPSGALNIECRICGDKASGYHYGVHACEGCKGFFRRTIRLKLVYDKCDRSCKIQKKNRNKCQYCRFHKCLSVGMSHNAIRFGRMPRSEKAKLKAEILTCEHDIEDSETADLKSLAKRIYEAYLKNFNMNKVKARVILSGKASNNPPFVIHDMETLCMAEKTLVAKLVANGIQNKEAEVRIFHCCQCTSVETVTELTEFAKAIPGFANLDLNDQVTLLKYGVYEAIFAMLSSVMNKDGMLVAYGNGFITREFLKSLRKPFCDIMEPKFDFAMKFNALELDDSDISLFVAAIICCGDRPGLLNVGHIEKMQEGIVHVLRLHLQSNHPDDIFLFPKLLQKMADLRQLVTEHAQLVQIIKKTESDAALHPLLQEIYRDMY

[7] = target: T2, Peroxisome proliferator-activated receptor gamma (Homo sapiens) (UniProt P37231); test: Displacement of fluormone pan-PPARgreen from PPARgamma (unknown origin) at 30 uM by TR-FRET based competitive binding assay relative to control; conditions: filed as partial agonist
T2 sequence (whole entry): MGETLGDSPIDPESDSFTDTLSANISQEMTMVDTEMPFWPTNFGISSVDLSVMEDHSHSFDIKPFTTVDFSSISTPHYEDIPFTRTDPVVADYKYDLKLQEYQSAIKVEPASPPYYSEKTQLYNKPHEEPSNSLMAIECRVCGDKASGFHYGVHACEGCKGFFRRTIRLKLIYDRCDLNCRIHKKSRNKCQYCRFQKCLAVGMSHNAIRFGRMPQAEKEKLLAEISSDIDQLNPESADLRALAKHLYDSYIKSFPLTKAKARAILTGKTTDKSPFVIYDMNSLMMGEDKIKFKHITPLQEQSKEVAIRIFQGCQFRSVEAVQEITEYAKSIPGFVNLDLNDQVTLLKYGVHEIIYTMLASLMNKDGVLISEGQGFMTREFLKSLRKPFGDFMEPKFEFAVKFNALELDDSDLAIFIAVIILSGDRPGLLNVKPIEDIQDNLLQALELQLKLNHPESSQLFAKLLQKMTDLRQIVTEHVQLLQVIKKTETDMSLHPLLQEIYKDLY

[8] = target: T3, Peroxisome proliferator-activated receptor delta (Homo sapiens) (UniProt Q03181); test: Displacement of fluormone pan-PPARgreen from PPARdelta (unknown origin) at 30 uM by TR-FRET based competitive binding assay relative to control; conditions: filed as partial agonist
T3 sequence (whole entry): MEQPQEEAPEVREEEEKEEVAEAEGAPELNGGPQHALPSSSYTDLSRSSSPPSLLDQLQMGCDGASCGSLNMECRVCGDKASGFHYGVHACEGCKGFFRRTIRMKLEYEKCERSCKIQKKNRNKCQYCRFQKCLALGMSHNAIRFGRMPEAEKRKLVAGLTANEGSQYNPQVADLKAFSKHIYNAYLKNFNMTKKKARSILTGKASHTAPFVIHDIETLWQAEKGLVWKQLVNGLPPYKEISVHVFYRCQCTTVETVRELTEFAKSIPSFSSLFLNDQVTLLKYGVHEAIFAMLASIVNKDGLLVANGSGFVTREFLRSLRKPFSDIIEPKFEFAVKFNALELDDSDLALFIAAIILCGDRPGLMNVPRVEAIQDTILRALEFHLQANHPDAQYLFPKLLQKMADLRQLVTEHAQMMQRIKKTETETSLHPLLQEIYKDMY

[9] = target: T4, Peroxisome proliferator-activated receptor gamma (Homo sapiens, UniProt P37231); test: Binding affinity to PPARgamma (unknown origin) assessed as inhibition constant by Cheng-Prusoff equation analysis
T4 sequence (P37231 whole entry): T2 sequence (whole entry)

[10] = target: T2, Peroxisome proliferator-activated receptor gamma (Homo sapiens); test: Partial agonist activity at PPARgamma in human BMMSC cells assessed as inhibition of pioglitazone-induced adiponectin synthesis measured after 5 days by ELISA; assay type: cell-based; conditions: filed as partial agonist, dose 10-30 µM, time 5.0 day, DDE = dose-dependent effect
[11] = target: T5, Peroxisome proliferator-activated receptor alpha (Homo sapiens, UniProt Q07869); test: Binding affinity to PPARalpha (unknown origin) assessed as inhibition constant by Cheng-Prusoff equation analysis
T5 sequence (Q07869 whole entry): T1 sequence (whole entry)

[12] = target: T6, Peroxisome proliferator-activated receptor delta (Homo sapiens, UniProt Q03181); test: Binding affinity to PPARdelta (unknown origin) assessed as inhibition constant by Cheng-Prusoff equation analysis
T6 sequence (Q03181 whole entry): T3 sequence (whole entry)

[13] = target: T5, Peroxisome proliferator-activated receptor alpha; test: Partial agonist activity at PPARalpha (unknown origin) assessed as increase in PRIP/RAP250 coactivator peptide requirement by Lanthascreen TR-FRET assay
[14] = target: T4, Peroxisome proliferator-activated receptor gamma; test: Partial agonist activity at PPARgamma (unknown origin) assessed as increase in fluorescein labeled PRIP/RAP250 coactivator peptide requirement by Lanthascreen TR-FRET assay
[15] = target: T2, Peroxisome proliferator-activated receptor gamma (Homo sapiens); test: Partial agonist activity at PPARgamma (unknown origin) assessed as increase in fluorescein labeled SRC-1 coactivator peptide requirement by Lanthascreen TR-FRET assay; conditions: filed as partial agonist
[16] = target: T2, Peroxisome proliferator-activated receptor gamma (Homo sapiens); test: Partial agonist activity at PPARgamma (unknown origin) assessed as increase in fluorescein labeled SRC-2 coactivator peptide requirement by Lanthascreen TR-FRET assay; conditions: filed as partial agonist
[17] = target: T6, Peroxisome proliferator-activated receptor delta; test: Partial agonist activity at PPARdelta (unknown origin) assessed as increase in fluorescein labeled PRIP/RAP250 coactivator peptide requirement by Lanthascreen TR-FRET assay
[18] = target: T7, Retinoic acid receptor RXR-alpha (Homo sapiens) (UniProt P19793); test: Agonist activity at RXRalpha-LBD (unknown origin) assessed as transactivation by measuring increase in fluorescein-labelled coactivator PGC-1alpha peptide recruitment at 60 uM by Lanthascreen TR-FRET assay relative to control; conditions: filed as agonist
T7 sequence (whole entry): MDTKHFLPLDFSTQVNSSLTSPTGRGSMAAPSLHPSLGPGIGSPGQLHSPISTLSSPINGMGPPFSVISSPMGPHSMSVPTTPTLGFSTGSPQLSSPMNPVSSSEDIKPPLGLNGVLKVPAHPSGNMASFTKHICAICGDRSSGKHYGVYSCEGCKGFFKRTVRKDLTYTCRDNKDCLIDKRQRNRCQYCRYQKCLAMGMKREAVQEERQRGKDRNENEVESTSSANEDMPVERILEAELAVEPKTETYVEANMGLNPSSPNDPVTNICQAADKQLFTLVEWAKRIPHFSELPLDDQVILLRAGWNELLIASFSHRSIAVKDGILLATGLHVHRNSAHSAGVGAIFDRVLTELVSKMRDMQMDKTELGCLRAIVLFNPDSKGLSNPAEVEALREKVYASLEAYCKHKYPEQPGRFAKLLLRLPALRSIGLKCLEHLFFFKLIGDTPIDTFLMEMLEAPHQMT

[19] = target: T8, Retinoic acid receptor RXR-alpha (Homo sapiens, UniProt P19793); test: Agonist activity at RXRalpha-LBD (unknown origin) assessed as transactivation by measuring increase in fluorescein-labelled coactivator PGC-1alpha peptide recruitment by Lanthascreen TR-FRET
T8 sequence (P19793 whole entry): T7 sequence (whole entry)

COc1cccc2ccc(-c3ccc4cccc(OC)c4c3O)c(O)c12
Activity (Mesenchymal stem cells [1]): Active

COc1ccc(Cl)cc1C(=O)NCCc1ccc(S(=O)(=O)NC(=O)NC2CCCCC2)cc1 [GLYBURIDE]
fold change (FC) (Mesenchymal stem cells [2]): 4.93

CC(=O)c1c(O)cccc1O
Activity (Mesenchymal stem cells [1]): Active

COc1cccc2c(-c3ccc(O)c4c(OC)cccc34)ccc(O)c12
Activity (Mesenchymal stem cells [1]): Active

COc1cccc2ccc(-c3ccc(O)c4c(OC)cccc34)c(O)c12
fold change (FC) (Mesenchymal stem cells [3]): 6
EC50 (Mesenchymal stem cells [4]): 15.2 µM
Activity (Mesenchymal stem cells [5]): Active
Activity [6]: 37.6%
Activity [7]: 61.2%
Activity [8]: 42.1%
Ki [9]: 6.6 µM
inhibition [10]: Dde

COc1cccc2ccc(-c3cc(-c4ccc(O)c5c(OC)cccc45)c4cccc(OC)c4c3O)c(O)c12
Activity (Mesenchymal stem cells [1]): Active

CCc1ccc(CCOc2ccc(CC3SC(=O)NC3=O)cc2)nc1 (stereo not given) [PIOGLITAZONE]
EC50 (Mesenchymal stem cells [4]): 0.79 µM

COc1cccc2c(-c3cc(-c4ccc(O)c5c(OC)cccc45)c4cccc(OC)c4c3O)ccc(O)c12
Activity (Mesenchymal stem cells [1]): Active

O=C1CCC(O)c2cccc(O)c21 (stereo not given)
Activity (Mesenchymal stem cells [1]): Active

COc1cccc2ccc(-c3cc(-c4ccc(O)c5c(OC)cccc45)c(O)c4c(OC)cccc34)c(O)c12
Activity (Mesenchymal stem cells [1]): Active

COc1cccc2ccc(-c3cc(-c4ccc5cccc(OC)c5c4O)c4cccc(OC)c4c3O)c(O)c12
fold change (FC) (Mesenchymal stem cells [3]): 4.1
EC50 (Mesenchymal stem cells [4]): 30.8 µM
Activity (Mesenchymal stem cells [5]): Active
Activity ([6]; filed as partial agonist): 56.5%
Activity [7]: 52%
Activity [8]: 51.8%
Ki [11]: 9.4 µM
Ki [9]: 19.1 µM
Ki [12]: 18.8 µM
inhibition [10]: Dde
EC50 [13]: 58.2 µM
EC50 [14]: 50.8 µM
Activity [15]: Active
Activity [16]: Active
EC50 [17]: 53.9 µM
Activity [18]: 53.2%
EC50 [19]: 52.9 µM

Cc1cc(=O)c2c(O)cccc2o1
Activity (Mesenchymal stem cells [1]): Active
